Measured values published in patent publication US12060349B2, “Glucosylceramide synthase inhibitors” (Genzyme Corporation, priority 2012, dated 2024).
pIC50: −log10 of the molar value.

How the values were obtained:
[1] = biological target: T1, glucosylceramide synthase (Homo sapiens, UniProt Q16739); assay: microsomal assay measuring conversion of ceramide to glucosylceramide by HPLC (GCS IC50); type: biochemical; details: concentration causing 50% inhibition of glucosylceramide synthase activity
T1 construct: Microsomes were isolated from A375 human melanoma cells; endogenous in cells; host or cells: A375 human melanoma cells (microsomal fraction, 100,000 g pellet)
T1 sequence (Q16739 1-394): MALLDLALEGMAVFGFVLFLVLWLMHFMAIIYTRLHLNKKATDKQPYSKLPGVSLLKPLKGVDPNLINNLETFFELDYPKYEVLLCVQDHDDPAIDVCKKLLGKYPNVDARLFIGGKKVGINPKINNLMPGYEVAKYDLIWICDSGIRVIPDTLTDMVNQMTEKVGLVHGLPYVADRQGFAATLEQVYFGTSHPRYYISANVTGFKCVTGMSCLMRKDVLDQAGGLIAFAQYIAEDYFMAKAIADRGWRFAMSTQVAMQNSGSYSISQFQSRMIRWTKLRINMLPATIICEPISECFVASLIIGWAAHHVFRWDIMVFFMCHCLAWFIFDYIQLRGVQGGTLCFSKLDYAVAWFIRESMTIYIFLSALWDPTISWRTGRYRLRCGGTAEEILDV
Summary of the method: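 IC50 is the compound concentration halving glucosylceramide synthase activity. Activity was measured in microsomes, with HPLC quantifying glucosylceramide formed from ceramide.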

[2] = system: GM3 expression on the cell surface, B16 mouse melanoma cells; assay: cell based phenotypic assay, cell surface GM3 by antibody mediated immunofluorescence, B16 (GM3 B16 IC50); details: Mus musculus, B16 mouse melanoma cells; 50% inhibition of GM3 expression on the cell surface; read-out: GM3 B16 IC50
Summary of the method: (§1)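 B16 mouse and C32 human melanoma cells; cell-surface GM3 measured by antibody-mediated immunofluorescence, giving IC50.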

[3] = system: GM3 expression on the cell surface, C32 human melanoma cells; assay: cell based phenotypic assay, cell surface GM3 by antibody mediated immunofluorescence, C32 (GM3 C32 IC50); details: Homo sapiens, C32 human melanoma cells; 50% inhibition of GM3 expression on the cell surface; read-out: GM3 C32 IC50
Summary of the method: as §1

B16 mouse melanoma cells = assay: cell viability in the B16 cell-based assay (Viability, B16 IC50); details: Mus musculus, B16, B16 cells; concentration causing 50% cell death; values greater than 10 represent a lack of cell death; read-out: Viability, B16 IC50
Summary of the method: (§2)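 Viability readouts were run alongside the GM3 cell-surface assay in the same B16 and C32 cultures. A figure above 10 indicates no cell death.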

C32 human melanoma cells = assay: cell viability in the C32 cell-based assay (Viability, C32 IC50); details: Homo sapiens, C32, C32 cells; concentration causing 50% cell death; values greater than 10 represent a lack of cell death; read-out: Viability, C32 IC50
Summary of the method: as §2

| SMILES | pIC50 [1] | pIC50 [2] | pIC50 [3] | pIC50 (B16 mouse melanoma cells) | pIC50 (C32 human melanoma cells) |
| --- | --- | --- | --- | --- | --- |
| COCCOCc1ccc(-c2ccnc(N3CCC(C)(C(=O)NC4(C)CN5CCC4CC5)CC3)n2)cc1 (stereo not drawn) [Example 98, 1-(4-(4-((2-Methoxyethoxy)methyl)phenyl)pyrimidin-2-yl)-4-methyl-N-(3-methylquinuclidin-3-yl)piperidine-4-carboxamide] | 7.11 | 5.72 | 8.09 | 5.09 | 6.00 |
| CC1(NC(=O)C2(O)CCN(c3nccc(-c4ccc(F)cc4)n3)CC2)CCN2CCC1CC2 (stereo not drawn) [Example 99, 1-(4-(4-Fluorophenyl)pyrimidin-2-yl)-4-hydroxy-N-(4-methyl-1-azabicyclo[3.2.2]nonan-4-yl)piperidine-4-carboxamide] | 8.65 | 7.92 | 10.26 | 5.42 | 7.33 |
| COCCCOc1ccc(-c2ccnc(N3CCC(OC)(C(=O)NC4(C)CCN5CCC4CC5)CC3)n2)cc1 (stereo not drawn) [Example 101, 4-Methoxy-1-(4-(4-(3-methoxypropoxy)phenyl)pyrimidin-2-yl)-N-(4-methyl-1-azabicyclo[3.2.2]nonan-4-yl)piperidine-4-carboxamide] | 8.47 | 7.11 | 9.36 | 5.69 | 6.00 |
| COC1(C(=O)NC2(C)CCN3CCC2CC3)CCN(c2ncc(F)c(-c3ccc(OCCF)cc3)n2)CC1 (stereo not drawn) [Example 102, 1-(5-Fluoro-4-(4-(2-fluoroethoxy)phenyl)pyrimidin-2-yl)-4-methoxy-N-(4-methyl-1-azabicyclo[3.2.2]nonan-4-yl)piperidine-4-carboxamide] | 8.99 | 7.03 | 9.59 | 5.55 | 7.00 |
| COC1(C(=O)NC2(C)CCN3CCC2CC3)CCN(c2nccc(-c3ccc(OCCF)cc3)n2)CC1 (stereo not drawn) [Example 103, 1-(4-(4-(2-Fluoroethoxy)phenyl)pyrimidin-2-yl)-4-methoxy-N-(4-methyl-1-azabicyclo[3.2.2]nonan-4-yl)piperidine-4-carboxamide] | 8.44 | 7.13 | 9.54 | 5.51 | 6.50 |
| CC1(NC(=O)C2CCN(c3cncc(-c4ccc(F)cc4)c3)CC2)CCN2CCC1CC2 (stereo not drawn) [Example 107, 1-(5-(4-Fluorophenyl)pyridin-3-yl)-N-(4-methyl-1-azabicyclo[3.2.2]nonan-4-yl)piperidine-4-carboxamide] | 8.32 | 6.52 | 9.03 | ≤ 5.00 | 7.11 |
| CN(C(=O)C1CCN(c2nccc(-c3ccc(F)cc3)n2)CC1)C1CN2CCC1CC2 (stereo not drawn) [Example 109, 1-(4-(4-Fluorophenyl)pyrimidin-2-yl)-N-methyl-N-(quinuclidin-3-yl)piperidine-4-carboxamide] | 7.40 | 5.65 | 8.05 | 5.02 | 5.50 |
| COCCCOc1ccc(-c2nc(N3CC(C(=O)NC4(C)CCN5CCC4CC5)C3)ncc2F)cc1 (stereo not drawn) [Example 111, 1-(5-Fluoro-4-(4-(3-methoxypropoxy)phenyl)pyrimidin-2-yl)-N-(4-methyl-1-azabicyclo[3.2.2]nonan-4-yl)azetidine-3-carboxamide] | 8.70 | 6.92 | 9.72 | 5.44 | 6.00 |
| CC1(NC(=O)C2CN(c3ncc(F)c(-c4ccc(F)cc4)n3)C2)CCN2CCC1CC2 (stereo not drawn) [Example 112, 1-(5-Fluoro-4-(4-fluorophenyl)pyrimidin-2-yl)-N-(4-methyl-1-azabicyclo[3.2.2]nonan-4-yl)azetidine-3-carboxamide] | 8.13 | 6.91 | 9.62 | 5.14 | 6.50 |
| CC1(NC(=O)C2CN(c3nccc(-c4ccc(F)cc4)n3)C2)CCN2CCC1CC2 (stereo not drawn) [Example 113, 1-(4-(4-Fluorophenyl)pyrimidin-2-yl)-N-(4-methyl-1-azabicyclo[3.2.2]nonan-4-yl)azetidine-3-carboxamide] | 8.08 | 6.26 | 9.05 | ≤ 5.00 | 6.50 |
| CC1(NC(=O)C2CN(c3cccc(-c4ccc(F)cc4)c3)C2)CCN2CCC1CC2 (stereo not drawn) [Example 114, 1-(4′-Fluoro-[1,1′-biphenyl]-3-yl)-N-(4-methyl-1-azabicyclo[3.2.2]nonan-4-yl)azetidine-3-carboxamide] | 7.29 | 6.57 | 7.95 | 5.46 | 6.00 |
| CC1(NC(=O)C2CCN(c3nccc(Oc4ccc(F)cc4)n3)CC2)CCN2CCC1CC2 (stereo not drawn) [Example 115, 1-(4-(4-Fluorophenoxy)pyrimidin-2-yl)-N-(4-methyl-1-azabicyclo[3.2.2]nonan-4-yl)piperidine-4-carboxamide] | 8.61 | 8.05 | 9.85 | 5.03 | 7.33 |

Continued by rising pIC50 [1], values first:

| pIC50 [1] | pIC50 [2] | pIC50 [3] | SMILES | pIC50 (B16 mouse melanoma cells) | pIC50 (C32 human melanoma cells) |
| --- | --- | --- | --- | --- | --- |
| 7.09 | 5.97 | 7.27 | CC1(NC(=O)C2CCN(c3ccnc(-c4ccc(F)cc4)c3)CC2)CCN2CCC1CC2 (stereo not drawn) [Example 108, 1-(2-(4-Fluorophenyl)pyridin-4-yl)-N-(4-methyl-1-azabicyclo[3.2.2]nonan-4-yl)piperidine-4-carboxamide] | 5.25 | 5.50 |
| 7.60 | 7.29 | 8.52 | COCCOc1cnc(N2CCC(C(=O)NC3(C)CCN4CCC3CC4)CC2)nc1-c1ccc(F)cc1 (stereo not drawn) [Example 104, 1-(4-(4-Fluorophenyl)-5-(2-methoxyethoxy)pyrimidin-2-yl)-N-(4-methyl-1-azabicyclo[3.2.2]nonan-4-yl)piperidine-4-carboxamide] | ≤ 5.00 | 6.00 |
| 7.98 | 6.57 | 8.70 | COCCOc1cc(-c2ccc(F)cc2)nc(N2CCC(C(=O)NC3(C)CCN4CCC3CC4)CC2)n1 (stereo not drawn) [Example 105, 1-(4-(4-Fluorophenyl)-6-(2-methoxyethoxy)pyrimidin-2-yl)-N-(4-methyl-1-azabicyclo[3.2.2]nonan-4-yl)piperidine-4-carboxamide] | 5.44 | 6.00 |
| 8.43 | 7.58 | 9.96 | COC1(C(=O)NC2(C)CCN3CCC2CC3)CCN(c2nccc(-c3ccc(F)cc3)n2)CC1 (stereo not drawn) [Example 100, 1-(4-(4-Fluorophenyl)pyrimidin-2-yl)-4-methoxy-N-(4-methyl-1-azabicyclo[3.2.2]nonan-4-yl)piperidine-4-carboxamide] | 5.72 | 6.00 |
| 8.91 | 6.28 | 8.62 | O=C(OC1CCN2CCC1CC2)C1CCN(c2nccc(-c3ccc(F)cc3)n2)CC1 (stereo not drawn) [Example 110, 1-Azabicyclo[3.2.2]nonan-4-yl 1-(4-(4-fluorophenyl)pyrimidin-2-yl)piperidine-4-carboxylate] | 5.42 | 6.00 |
| 9.07 | 7.82 | 10.02 | CC1(NC(=O)C2CCN(c3cc(-c4ccc(F)cc4)ccn3)CC2)CCN2CCC1CC2 (stereo not drawn) [Example 106, 1-(4-(4-Fluorophenyl)pyridin-2-yl)-N-(4-methyl-1-azabicyclo[3.2.2]nonan-4-yl)piperidine-4-carboxamide] | 5.16 | 5.04 |
